In patent publication US9573882B2, “Use of 4-[ethyl(dimethyl)ammonio]butanoate in the treatment of cardiovascular disease” (JSC GRINDEKS, priority 2009, dated 2017):

Assays:
[1] = system: isolated rat heart infarction model; assay: Isolated rat heart infarction study after daily p.o. treatment; assay type: in vivo, Wistar rats; details: for Infarct size, % of control: isolated rat heart, 60 min occlusion, 150 min reperfusion, mean ± s.e.m. of 9-10 animals; for decrease of infarct size: versus control
Procedure: Fifty male, 10 weeks old Wistar rats weighing 200-250 g were housed under standard conditions (21-23° C., 12 h light-dark cycle) with unlimited access to food (R3 diet, Lactamin AB, Sweden) and water.
Rats were adapted to local conditions for two weeks before the start of treatment. Meldonium dihydrate at a dose of 5 mg/kg or 100 mg/kg, gamma-butyrobetaine at a dose of 5 mg/kg and EG at doses of 20 mg/kg were administered p.o. daily for 8 weeks. Control rats received water.
Isolated Rat Heart Infarction Study The isolated rat heart experiment was performed essentially as described earlier (Liepinsh et al., J. Cardiovasc. Pharmacol. 2006; 48(6):314-9). Twenty-four hours after the last drug administration hearts were excised and retrogradely perfused via the aorta at a constant pressure with oxygenated Krebs-Henseleit buffer at 37° C. The heart rate, left ventricle end-diastolic pressure and left ventricle developed pressure were continuously recorded. Coronary flow was measured using an ultrasound flow detector (HSE) and the PowerLab 8/30 system from ADInstruments. The hearts were perfused for 20 min to stabilize the hemodynamic functions and then occlusion was performed for 60 min by constricting threads through a plastic tube. Successful occlusion was confirmed by a coronary flow decrease of about 40 percent. Reperfusion was achieved by releasing the threads. At the end of the 150-min reperfusion period, the risk zone was delineated with 0.1% methylene blue. The hearts were then sectioned transversely from the apex to the base in five slices 2 mm in thickness and incubated in 1% triphenyltetrazolium chloride in phosphate buffer (pH 7.4, 37° C.) for 10 min to stain viable tissue red and necrotic tissue white. Computerized planemetric analysis of Sony A900 photographs was performed using Image-Pro Plus 6.3 software to determine the area at risk and area of necrosis expressed as a % of the left ventricle. The obtained values were then used to calculate the infarct size (IS) as a % of risk area according to the formula: Infarct Size=Area of Necrosis/Area at Risk×100%.
The anti-infarction effect of examined substances was investigated in an isolated rat heart infarction model. During occlusion of left coronary artery, the coronary flow in all experimental groups was decreased for 40% (from 11 ml/min 30 to 7 ml/min). Moreover, the drop of developed left ventricular pressure for 50% was observed. […] In reperfusion stage, coronary flow, developed left ventricular pressure, ±dp/dt values were recovered till about 80% of control level. There were no significant differences between control and treatment groups.
Effects of Meldonium dihydrate (5 mg/kg un 100 mg/kg), gamma-butyrobetaine (5 mg/kg) and 4-[ethyl(dimethyl)ammonio]butanoate (EG) (5 mg/kg) after […] of treatment on infarct size in the isolated rat heart infarction experiment are presented in Table 1.

[2] = s.c.; cited from earlier work

Row | SMILES | Infarct size, % of control ([1]; 5 mg/kg p.o. daily) | decrease of infarct size ([1]; dose of 5 mg/kg) | therapeutical effect on infarct size ([1]; dose of 5 mg/kg) | LD50 [2] | Infarct size, % of control ([1]; 100 mg/kg p.o. daily) | decrease of infarct size ([1]; 100 mg/kg)
1 | CC[N+](C)(C)CCCC(=O)[O-] [EG, 4-[ethyl(dimethyl)ammonio]butanoate] | 59 ± 6 % of control | 41% |  |  |  | 
2 | C[N+](C)(C)CCCC(=O)[O-] [Gamma-butyrobetaine] | 90 ± 5 % of control |  | no therapeutical effect | > 7000 mg/kg |  | 
3 | C[N+](C)(C)NCCC(=O)[O-] [Meldonium dihydrate, 3-(2,2,2-Trimethylhydrazinium)propionate dihydrate] | 95 ± 9 % of control | 5% |  |  | 76 ± 10 % of control | 24%
